System: tumor cells
Assay: Tumor inhibition in mice subcutaneously inoculated with tumor cells
Format: in vivo
Settings: 10 mg/kg once daily for 15 days; tumor weight vs saline group
Protocol: A total of 140 mice (equal number of males and females), approximately 3 months old, with a weight range of 15.41-18.47 g, were selected. Mice were subcutaneously inoculated with tumor cells, and their blood samples were drawn 24 hours later to test tumor markers and confirm the success of the mouse model establishment. A total of 126 mice confirmed with cancer (equal number of males and females) were selected and randomly divided into 6 groups, with 21 mice in each group (roughly equal number of males and females). These 6 groups were designated as Experimental Group 1, Experimental Group 2, Experimental Group 3, Experimental Group 4, Experimental Group 5, and Experimental Group 6. […] Tumor inhibition rate was calculated as follows: Tumor Inhibition Rate=(Average Tumor Weight in Control Group−Average Tumor Weight in Experimental Group)/Average Tumor Weight in Control Group.

SMILES	Tumor Inhibition Rate [%]
CCCc1nn(C)c2c(=O)[nH]c(-c3cc(S(=O)(=O)N4CCN(C)CC4)ccc3OCC)nc12 [sildenafil]	40.55
CC(C)=CCC/C(C)=C/CC/C(C)=C/CC/C(C)=C/CC/C(C)=C/CC/C(C)=C/CC/C(C)=C/CC1=C(C)C(=O)c2ccccc2C1=O [MK-7, vitamin K2 (MK-7)]	35.67
